From ChEMBL document CHEMBL1201862, “PubChem BioAssay data set” (2004)
Values joined by “and” are separate entries in the source; they are usually repeats but may differ in a detail not shown here. Equal values may be shown once.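 A five-concentration, 48-hour dose response in 96-well plates underlies each endpoint, interpolated linearly between surrounding concentrations. Here, GI50 denotes the concentration required for 50% inhibition of growth.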 Active and inactive are the calls of the source. Rule as the data show it: active = GI50 up to about 1.1 µM and inactive = higher.

Columns and labels:
Test in all cases: NCI-60 cell line screen, 48 h
[1] = test system: IGROV-1
[2] = test system: NCI-H460
[3] = test system: A549
[4] = test system: DU-145
[5] = test system: BT-549
[6] = test system: SW-620
[7] = test system: Malme-3M
[8] = test system: NCI-H522
[9] = test system: UO-31
[10] = test system: NCI/ADR-RES
[11] = test system: SK-MEL-28
[12] = test system: K562
[13] = test system: EKVX
[14] = test system: OVCAR-4
[15] = test system: NCI-H226
[16] = test system: OVCAR-3
[17] = test system: LOX IMVI
[18] = test system: SK-MEL-5
[19] = test system: OVCAR-8
[20] = test system: RXF 393

Measured: GI50

COc1ccc2c(c1OC)CN1CCc3cc4c(cc3C1C2)OCO4 (stereo not given) [TETRAHYDROBERBERINE]
inactive: [1] > 100 µM | [2] 61 µM | [3] > 100 µM | [4] > 100 µM | [5] > 100 µM | [6] > 100 µM | [7] > 100 µM | [8] > 100 µM | [9] > 100 µM | [10] > 100 µM | [11] > 100 µM | [12] 80 µM | [13] > 100 µM | [14] > 100 µM | [15] > 100 µM and 68.7 µM | [16] > 100 µM | [17] > 100 µM | [18] > 100 µM | [19] > 100 µM

C/C=C\C(CC(=O)NCCC1CN(C(=O)OCc2ccccc2)c2ccccc21)CC(=O)OC (stereo not given)
inactive: [1] > 100 µM | [2] 86.5 µM | [3] > 100 µM | [4] > 100 µM | [5] > 100 µM | [6] > 100 µM | [7] > 100 µM | [8] > 100 µM | [9] > 100 µM | [10] > 100 µM | [11] > 100 µM | [20] > 100 µM | [12] > 100 µM | [13] > 100 µM | [14] > 100 µM | [16] > 100 µM | [18] > 100 µM | [19] > 100 µM

CCc1c(CNC2=NCCN2)c(CC)c(CNC2=NCCN2)c(CC)c1CNC1=NCCN1
inactive: [1] > 100 µM | [2] > 100 µM | [3] > 100 µM | [4] > 100 µM | [5] > 100 µM | [6] > 100 µM | [7] > 100 µM | [8] > 100 µM | [9] > 100 µM | [10] > 100 µM | [11] > 100 µM | [20] > 100 µM | [12] > 100 µM | [13] > 100 µM | [14] > 100 µM | [15] > 100 µM | [16] > 100 µM | [18] > 100 µM | [19] > 100 µM

Cc1ccc2[nH]c3[nH]c(=O)[nH]c(=O)c3c2c1
inactive: [1] > 100 µM | [3] > 100 µM | [4] > 100 µM | [5] > 100 µM | [6] > 100 µM | [7] > 100 µM | [8] > 100 µM | [9] > 100 µM | [10] > 100 µM | [20] > 100 µM | [12] > 100 µM | [13] > 100 µM | [15] > 100 µM | [16] > 100 µM | [17] > 100 µM | [18] > 100 µM | [19] > 100 µM

CCN(CC)Cc1cc(Nc2c3ccccc3nc3c4ccccc4n(C)c23)cc(CN(CC)CC)c1O
inactive: [1] 9.98 µM | [2] 3.89 µM | [3] 8.43 µM | [4] 8.67 µM | [5] 2 µM | [6] 3.12 µM | [7] 2.74 µM | [8] 1.75 µM | [9] 2.12 µM | [10] 2.91 µM | [11] 2.37 µM | [20] 3.16 µM | [12] 2.76 µM | [13] 4.59 µM | [14] 4.43 µM | [15] 11.2 µM | [16] 2.43 µM | [18] 1.65 µM | [19] 4.39 µM

N=C1C(O)C2(I)c3ccccc3N3C(=N)C(O)C4c5ccccc5N1C4C32 (stereo not given)
inactive: [1] 19.9 µM | [2] 37.7 µM | [3] 51.8 µM | [4] > 100 µM | [5] > 100 µM | [6] 52.8 µM | [7] 21.1 µM | [8] 25.9 µM | [9] > 100 µM | [10] 61.2 µM | [11] 90.6 µM | [20] > 100 µM | [12] 26.4 µM | [13] > 100 µM | [14] 16 µM | [16] 32.1 µM | [17] 39 µM | [18] 30.8 µM | [19] 33.5 µM

COC(=O)Cc1c([C@H]2[C@H](CC(=O)OC)c3ccccc3N2C(C)=O)[nH]c2ccccc12
inactive: [1] 34.4 µM | [2] 96.8 µM | [3] 97.7 µM | [4] > 100 µM | [5] 67.6 µM | [6] > 100 µM | [7] > 100 µM | [8] 71 µM | [9] 39.9 µM | [10] > 100 µM | [11] > 100 µM | [20] > 100 µM | [12] 50.8 µM | [13] > 100 µM | [15] > 100 µM | [16] > 100 µM | [17] > 100 µM | [18] > 100 µM | [19] > 100 µM
